Results published in the NIST ThermoML archive (doi:10.1021/je049894j).
Numbers after ± are expanded uncertainties.

Settings: Liquid

CCCCO [butan-1-ol]
vapor or sublimation pressure (468.15 K): 833 ± 26 kPa
vapor or sublimation pressure (483.15 K): 1182 ± 37 kPa
vapor or sublimation pressure (498.15 K): 1558 ± 48 kPa
vapor or sublimation pressure (513.15 K): 2027 ± 63 kPa

CCC(C)O (centres undefined) [butan-2-ol]
vapor or sublimation pressure (468.15 K): 1351 ± 31 kPa
vapor or sublimation pressure (483.15 K): 1791 ± 39 kPa
vapor or sublimation pressure (498.15 K): 2329 ± 49 kPa
vapor or sublimation pressure (513.15 K): 2946 ± 60 kPa

CCCCC [pentane]
vapor or sublimation pressure (468.15 K): 3286 ± 100 kPa
